The text below walks through data of paper PMC8994274, “A proteolysis-targeting chimera molecule selectively degrades ENL and inhibits malignant gene expression and tumor growth” (Journal of Hematology & Oncology, 2022).

Read-outs that look alike come from different tables or passages of the source.

One data set has as its system Hela cells. Put plainly: Antiproliferation assay, Hela. Particulars: Homo sapiens, read-out: Antiproliferative activity, EC50, Hela.
The next data set has as its system Panc1 cells. Description: Antiproliferation assay, Panc1. Particulars: Homo sapiens, PANC-1, 168 h, read-out: Antiproliferative activity, EC50, Panc1.
The subject of the next data set is U266 cells. Description: Antiproliferation assay (XTT), U266. The following applies: Homo sapiens, U-266, 168 h, read-out: Antiproliferative activity, EC50, U266.
For another data set, the system named is MV4;11 cells. Put plainly: Antiproliferation assay (XTT), MV4;11. Particulars: Homo sapiens, MV4-11, 168 h, read-out: Antiproliferative activity, EC50, MV4;11. (Formazan colour is commonly taken as a measure of viable cells.)
For a further data set, the system named is Molm-13 cells. Description: Antiproliferation assay (XTT), Molm-13. The following applies: for EC50: Homo sapiens, MOLM-13, 168 h, read-out: Antiproliferative activity, EC50, Molm13.
The next data set deals with Kasumi-1 cells. Description: Antiproliferation assay (XTT), Kasumi-1. The following applies: Homo sapiens, Kasumi 1, 168 h, read-out: Antiproliferative activity, EC50, Kasumi-1.
A further data set concerns RPMI-8226 cells. Description: Antiproliferation assay (XTT), RPMI-8226. Particulars: Homo sapiens, RPMI-8226, 168 h, read-out: Antiproliferative activity, EC50, RPMI-8226.
The target of data set [1] is T1, ENL (Homo sapiens, UniProt Q03111).
T1 sequence (Q03111 1-559): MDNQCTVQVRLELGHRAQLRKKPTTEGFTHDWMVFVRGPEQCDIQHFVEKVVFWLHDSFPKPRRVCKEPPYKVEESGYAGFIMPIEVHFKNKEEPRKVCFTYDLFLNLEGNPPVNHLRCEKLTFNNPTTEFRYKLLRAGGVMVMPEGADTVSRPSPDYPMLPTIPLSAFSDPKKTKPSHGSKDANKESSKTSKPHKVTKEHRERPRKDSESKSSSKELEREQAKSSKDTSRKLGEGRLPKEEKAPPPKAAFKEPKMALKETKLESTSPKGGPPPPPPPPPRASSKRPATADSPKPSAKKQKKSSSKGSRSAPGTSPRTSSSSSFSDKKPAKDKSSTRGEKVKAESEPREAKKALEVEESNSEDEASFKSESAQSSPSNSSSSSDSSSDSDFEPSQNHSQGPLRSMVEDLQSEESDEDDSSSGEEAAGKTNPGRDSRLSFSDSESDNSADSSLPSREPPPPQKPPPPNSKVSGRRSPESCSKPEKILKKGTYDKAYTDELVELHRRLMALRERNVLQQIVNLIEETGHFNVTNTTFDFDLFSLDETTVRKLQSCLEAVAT
Put plainly: Rescue of compound 1-mediated ENL degradation in MV4;11 cells. Format: cell-based. On the set-up: endogenous in cells; host or cells: MV4;11. The following applies: 2 h pre-treatment, then co-treatment with 1 (500 nM) for 24 h. As to the method:
(§1) 3 × 10^6 cells/well were treated with increasing concentrations of a compound for 1 day, and whole proteins were extracted. Equal amounts of proteins were separated on SDS-PAGE and transferred to PVDF membranes. The blots were probed with primary antibodies, followed by anti-rabbit IgG (Thermo Scientific) secondary antibodies.

Data set [2] deals with T1, ENL. Description: ENL in nucleus and cytoplasm of MV4;11 cells (Western blot). Particulars: 4 days, compound 1 at 500 nM. Also on record: endogenous in cells; host or cells: MV4;11. Format: cell-based. As for the experimental part: Upon treatment of MV4;11 cells with these compounds for 4 days, cytoplasmic and nuclear proteins were separated and subjected to SDS-PAGE/Western blot.
as §1
On the technique in general: In western blotting, separated proteins are transferred to a membrane and probed.

For the next data set, the target named is T2, AF9 YEATS (Homo sapiens, UniProt P42568).
T2 sequence (P42568 1-138 limits assumed): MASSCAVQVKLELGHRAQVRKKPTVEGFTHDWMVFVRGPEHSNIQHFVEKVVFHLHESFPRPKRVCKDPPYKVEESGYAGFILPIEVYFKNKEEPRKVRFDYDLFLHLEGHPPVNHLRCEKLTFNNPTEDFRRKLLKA
Put plainly: ALPHA assay, inhibition of the AF9 YEATS-H3K27ac interaction.

Data set [3] deals with blood and solid tumor cells. Description: Antiproliferation assay, ranges given over several cell lines. In kind it is cell-based.
Protocol: (§2) Proliferation inhibition assays for suspension blood cancer cells were performed using an XTT assay kit (Biotium), following our previous methods [22]. EC50 values were determined using Prism 5 and from at least three independent experiments.
Data set [4] has as its target T1, ENL. Put plainly: ENL degradation in MV4;11 cells (Western blot). Particulars: for Dmax: MV4-11, MV4;11 cells, read-out: Dmax (maximal degradation) of ENL; for Dmax / DC50: 24 h; for DC50: read-out: DC50 (concentration at which a protein is reduced by 50%) of ENL. Also on record: endogenous in cells; host or cells: MV4;11. Format: cell-based. As to the method: We next tested whether these compounds degrade ENL and AF9 in MV4;11 leukemia cells with the MLL1-AF4 oncogene. Upon compound treatment for 24 h, the cells were washed, lysed, and the lysates subjected to SDS-PAGE (sodium dodecyl sulfate–polyacrylamide gel electrophoresis) followed by detection with Western blot.
3 × 10^6 cells/well were treated with increasing concentrations of a compound for 1 day, and whole proteins were extracted. Equal amounts of proteins were separated on SDS-PAGE and transferred to PVDF membranes. The blots were probed with primary antibodies, followed by anti-rabbit IgG (Thermo Scientific) secondary antibodies. The primary antibodies against ENL (Cell signaling #14893), AF9 (Novusbio #NB100-1565), DOT1L (Cell signaling #77087), AFF4 (Abcam #ab103586), Cyclin T1 (Cell signaling #81464), H3K79me2 (Cell signaling #5427), H3K79me1 (Cell signaling #9398), Histone H3 (Cell signaling #4499), FLAG (Sigma-Aldrich #F1804), β-Actin (Cell signaling #4970) were used in this study.

A further data set concerns the target T3, ENL YEATS (Homo sapiens, UniProt Q03111).
T3 sequence (Q03111 1-138): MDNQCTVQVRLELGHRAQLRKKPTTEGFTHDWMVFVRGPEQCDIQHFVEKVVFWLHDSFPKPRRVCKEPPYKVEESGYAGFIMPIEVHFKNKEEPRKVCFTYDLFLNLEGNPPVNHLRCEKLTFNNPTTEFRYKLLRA

Description for AF9 YEATS: (§3) AlphaScreen binding assay was developed using Perkin-Elmer AlphaScreen Histidine (Nickel Chelate) Detection Kit, following a reported protocol [39]. Data were imported into Prism (version 5.0), and IC50 values from 3 independent experiments with standard deviation were obtained by using a standard dose–response curve fitting.
Description for ENL YEATS: cDNA for human ENL YEATS domain (1–138) was synthesized (by Genscript) and cloned into pET-28a vector.
as §3
Protocol for Kasumi-1 cells: as §2
Protocol for Molm-13 cells: as §2
Protocol for RPMI-8226 cells: as §2
Protocol for U266 cells: as §2

Regarding `C[C@H]1CCCN1Cc1nc2cc(NC(=O)c3ccc4c(cnn4C)c3)ccc2[nH]1` [SGC-iMLLT, reference compound], the EC50 – broadly, the concentration giving half of the maximal effect – was greater than 50 µM in the data set with Hela cells (168 h); greater than 50 µM with Panc1 cells; greater than 50 µM with U266 cells; greater than 50 µM with MV4;11 cells; 17 ± 1.1 µM in the data set on Molm-13 cells; greater than 50 µM in the data set on Kasumi-1 cells. In addition, in the data set on RPMI-8226 cells, the EC50 was greater than 50 µM. For the same molecule, the “Antiproliferative activity, EC50, Molm13” value in the data set on Molm-13 cells (7-day incubation) is “weak activity”. Besides, the “Effect on compound 1-mediated ENL degradation” value (from here on “Effect”) at ENL [1] is given as “dose-dependently inhibit 1-mediated ENL degradation”. The “ENL level in the nucleus” value on ENL [2] was “no reduction or even an increase”. Also, half-maximal inhibition against AF9 YEATS (IC50) was put at 0.011 ± 0.0006 µM.

In the case of `CC(C)C[C@H](NC(=O)[C@H](Cc1ccccc1)NC(=O)c1cnccn1)B(O)O` [bortezomib], the “Effect” value at ENL [1] is “dose-dependently inhibit 1-mediated ENL degradation”.

As to `C[C@H]1CCCN1Cc1nc2cc(NC(=O)c3ccc4c(cnn4CCCCNC(=O)CC45CC6CC(CC(C6)C4)C5)c3)ccc2[nH]1` [Compound 4], the “Cytotoxic action over time” value in [3] (cancerous cells) was “killing cancerous cells non-selectively within 3 days”. Further, the EC50 in [3] (non-selective activities, read-out: EC50 for blood and solid tumor cells (range over cell lines)) is 1 to 3.8 µM; in the data set with Hela cells (72 h), 3.8 ± 1.2 µM; with Molm-13 cells it was 0.98 ± 0.04 µM; with RPMI-8226 cells, 1.4 ± 0.46 µM. Also, on ENL [4] (MV4;11 cells, even at 5 μM), the ENL reduction result is “did not reduce ENL”.

Regarding `C[C@H]1CCCN1Cc1nc2cc(NC(=O)c3ccc4c(cnn4CCCCNc4cccc5c4C(=O)N(C4CCC(=O)NC4=O)C5=O)c3)ccc2[nH]1` (stereo partly shown) [Compound 3], the EC50 is greater than 50 µM with Hela cells (168 h); greater than 50 µM in the data set on Panc1 cells; 2.9 ± 1.8 µM with U266 cells; 1.2 ± 0.05 µM in the data set with MV4;11 cells; 2.1 ± 0.03 µM in the data set with Molm-13 cells; 50 µM in the data set on Kasumi-1 cells. Further, the EC50 in the data set with RPMI-8226 cells came to 19 ± 3.8 µM. Moreover, the Dmax – broadly, the greatest extent of degradation seen – on ENL [4] was determined as 89%. Moreover, the DC50 on ENL [4] (MV4;11 cells) stood at 0.072 µM. Also, the IC50 (in general, the concentration needed to halve the response being measured) was found to be 0.61 µM at ENL YEATS and 0.058 ± 0.02 µM against AF9 YEATS.

Consider `C[C@H]1CCCN1Cc1nc2cc(NC(=O)c3ccc4c(cnn4CCCCCCNc4cccc5c4C(=O)N(C4CCC(=O)NC4=O)C5=O)c3)ccc2[nH]1` (stereo partly shown) [Compound 2], for which the EC50 was greater than 50 µM with Hela cells (168 h); greater than 50 µM in the data set with Panc1 cells; 17 µM in the data set on U266 cells; 1.6 ± 0.01 µM in the data set with MV4;11 cells; 0.49 ± 0.43 µM in the data set on Molm-13 cells; 19 ± 3.4 µM in the data set on Kasumi-1 cells. Also, the EC50 with RPMI-8226 cells came out at 6 ± 0.9 µM. Further, the Dmax on ENL [4] was roughly 68%. On ENL [4] (MV4;11 cells), the DC50 was roughly 0.05 µM. The results for the IC50 at ENL YEATS and at AF9 YEATS were 0.1 µM and 0.317 ± 0.058 µM, respectively.

`O=C1CCC(N2C(=O)c3ccccc3C2=O)C(=O)N1` (stereo not shown) [thalidomide, reference compound]: the EC50 in the data set with Hela cells (168 h), in the data set with Panc1 cells, in the data set with U266 cells, in the data set on MV4;11 cells, with Molm-13 cells and in the data set on Kasumi-1 cells was greater than 50 µM in each case. Further, the EC50 in the data set with RPMI-8226 cells is greater than 50 µM. For the same molecule, on ENL [1], the “Effect” value was “dose-dependently inhibit 1-mediated ENL degradation”. Besides, the “ENL level in the nucleus” value at ENL [2] is listed as “did not reduce”.
